IC50 data for 24 molecules are collected here from US5591891A, “N-[Mercaptoacyl (amino acid or peptide ) ] compounds and S-lipophiIic aliphatic carbonyl derivatives thereof as antihypertensives” (Institut National de la Sante et de la Recherche Medicale …, priority 1994, dated 1997).

Assay [1] has as its target peptidyldipeptidase A (ACE) (Homo sapiens, UniProt P12821). Briefly: Enzymatic inhibition of peptidyldipeptidase A, Z-Phe-His-Leu as substrate. Format: biochemical.
Assay [2] concerns the target neutral endopeptidase (NEP) (Homo sapiens, UniProt P08473). Briefly: Enzymatic inhibition of neutral endopeptidase, [3H]D-Ala2-Leu-enkephalin as substrate. It is filed as biochemical. As for the experimental part:
The enzymatic inhibitory properties of compounds according to the present invention are measured using [^3 H]D-Ala^2 -Leu-enkephalin as a substrate for neutral endopeptidase as described previously by Llorens et al., Biochem. Biophys.

Chain of neutral endopeptidase (NEP) (P08473 whole entry, species assumed): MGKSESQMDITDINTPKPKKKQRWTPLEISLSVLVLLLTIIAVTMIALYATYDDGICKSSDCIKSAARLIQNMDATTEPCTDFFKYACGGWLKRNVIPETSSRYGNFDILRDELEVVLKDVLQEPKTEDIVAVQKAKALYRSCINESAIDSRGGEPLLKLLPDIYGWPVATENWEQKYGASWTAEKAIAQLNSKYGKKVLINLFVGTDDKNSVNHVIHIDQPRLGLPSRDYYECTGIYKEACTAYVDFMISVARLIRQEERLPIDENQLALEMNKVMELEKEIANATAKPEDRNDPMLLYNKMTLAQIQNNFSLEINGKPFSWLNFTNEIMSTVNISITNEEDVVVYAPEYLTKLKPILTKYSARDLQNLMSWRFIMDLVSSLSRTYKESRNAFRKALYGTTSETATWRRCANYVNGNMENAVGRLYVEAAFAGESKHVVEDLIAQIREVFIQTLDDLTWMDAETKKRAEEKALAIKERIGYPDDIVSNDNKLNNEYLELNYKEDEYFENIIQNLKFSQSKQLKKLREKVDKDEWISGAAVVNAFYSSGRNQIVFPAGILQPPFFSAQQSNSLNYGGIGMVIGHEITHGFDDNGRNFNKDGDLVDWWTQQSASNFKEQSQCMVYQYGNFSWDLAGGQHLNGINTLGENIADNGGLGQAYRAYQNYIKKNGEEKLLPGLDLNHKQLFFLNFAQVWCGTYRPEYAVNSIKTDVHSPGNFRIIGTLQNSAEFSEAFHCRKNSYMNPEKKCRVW
Chain of peptidyldipeptidase A (ACE) (P12821 30-1306, species assumed): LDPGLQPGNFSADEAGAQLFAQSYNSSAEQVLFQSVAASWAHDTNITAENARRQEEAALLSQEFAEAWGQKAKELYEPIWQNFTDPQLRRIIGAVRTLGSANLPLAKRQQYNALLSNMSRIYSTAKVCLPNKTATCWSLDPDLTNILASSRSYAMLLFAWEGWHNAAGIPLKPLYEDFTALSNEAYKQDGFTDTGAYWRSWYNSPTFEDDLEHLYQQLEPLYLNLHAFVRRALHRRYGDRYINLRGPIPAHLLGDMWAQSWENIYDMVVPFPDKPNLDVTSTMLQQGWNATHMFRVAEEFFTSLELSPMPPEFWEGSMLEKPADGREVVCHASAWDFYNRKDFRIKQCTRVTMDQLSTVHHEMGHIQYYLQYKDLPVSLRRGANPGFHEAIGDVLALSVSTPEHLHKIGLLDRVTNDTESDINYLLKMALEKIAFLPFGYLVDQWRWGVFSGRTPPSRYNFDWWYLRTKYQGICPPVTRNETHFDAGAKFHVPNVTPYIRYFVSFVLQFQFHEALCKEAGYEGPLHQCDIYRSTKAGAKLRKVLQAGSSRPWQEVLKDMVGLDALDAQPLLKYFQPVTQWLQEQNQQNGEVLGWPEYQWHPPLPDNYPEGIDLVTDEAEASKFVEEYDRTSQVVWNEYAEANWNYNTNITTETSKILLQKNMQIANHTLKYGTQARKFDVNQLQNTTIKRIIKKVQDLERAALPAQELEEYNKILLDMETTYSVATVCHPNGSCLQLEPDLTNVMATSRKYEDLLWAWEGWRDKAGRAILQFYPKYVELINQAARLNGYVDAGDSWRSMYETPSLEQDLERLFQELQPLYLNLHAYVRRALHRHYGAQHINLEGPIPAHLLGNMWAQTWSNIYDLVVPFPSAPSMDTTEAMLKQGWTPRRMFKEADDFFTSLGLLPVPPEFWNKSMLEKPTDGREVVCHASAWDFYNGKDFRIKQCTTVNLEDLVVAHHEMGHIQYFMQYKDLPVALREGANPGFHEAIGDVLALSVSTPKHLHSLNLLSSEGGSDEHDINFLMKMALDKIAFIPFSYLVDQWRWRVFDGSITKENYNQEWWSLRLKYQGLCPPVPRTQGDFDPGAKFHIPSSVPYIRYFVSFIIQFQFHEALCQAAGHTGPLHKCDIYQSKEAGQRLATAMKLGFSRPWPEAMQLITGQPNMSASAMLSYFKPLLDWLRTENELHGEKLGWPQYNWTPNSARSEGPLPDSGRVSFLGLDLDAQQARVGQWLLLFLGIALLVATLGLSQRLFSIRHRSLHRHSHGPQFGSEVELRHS

`CCC(C)C(S)C(=O)NC(C(=O)N[C@@H](Cc1ccc(O)cc1)C(=O)O)C(C)C` (stereo partly shown) [Example 25, N-(2-Mercapto-3-methylpentanoyl)-Val-Tyr]: the IC50 (in general, the midpoint of a concentration-inhibition curve) in assay [1] (Table III) worked out at 2 ± 0.5 nM; in assay [2] (Table III), 5 ± 2 nM. `CC(c1ccc(O)cc1)C(CS)C(=O)N[C@@H](C)C(=O)O` (stereo partly shown) [Example 73, N-[2-Mercaptomethyl,3-(4-hydroxyphenyl)-1-oxobutyl]alanine]: the half-maximal inhibitory concentration (IC50) in assay [1] (Table IV) stood at 6.2 nM; in assay [2] (Table IV) it was 3.5 nM.

On to `CCC(C)C(NC(=O)C(S)Cc1ccccc1)C(=O)N1CCCCC1C(=O)O` (stereo not shown) [Example 21, N-(2-Mercapto-3-phenylpropanoyl)-Ile-Pip], for which the IC50 in assay [1] (Table III) turned out to be 2 ± 1 nM; in assay [2] (Table III), 5 ± 2 nM.

On to `CC(c1ccccc1)C(CS)C(=O)NCC(=O)O` (stereo not shown) [Example 63, N-(2-Mercaptomethyl-1-oxo-3-phenylbutyl)glycine], for which the 50% inhibitory concentration (IC50) in assay [1] (Table IV) is 25 nM; in assay [2] (Table IV) it was 1.3 nM. For the molecule `CCCC[C@H](NC(=O)C(CS)C(C)c1ccccc1)C(=O)O` (stereo partly shown) [Example 69, N-(2-Mercaptomethyl-1-oxo-3-phenylbutyl)norleucine], in assay [1] (Table IV), half-maximal inhibition (IC50) required 5.8 nM. With `CC(=O)SC(C(=O)N[C@@H](Cc1ccc(O)cc1)C(=O)O)C(C)c1ccc(F)cc1` (stereo partly shown) [Example 80, N-[2-Acetylthio-3-(4-fluorophenyl)-1-oxobutyl]tyrosine], the half-maximal inhibitory concentration (IC50) came out at 5.9 nM in assay [1] (Table IV) and 4.8 nM in assay [2] (Table IV). Consider `CC(c1ccccc1)C(CSS)C(=O)N[C@@H](Cc1ccc(O)cc1)C(=O)O` (stereo partly shown) [88(B), N-(2-mercaptothiomethyl-1-oxo-3-phenylbutyl)tyrosine], for which the IC50 in assay [1] (Table IV) was determined as 52 nM; in assay [2] (Table IV) it was 3.1 nM. For `CC(C)C(NC(=O)C(S)CCc1ccccc1)C(=O)N[C@@H](Cc1ccc(O)cc1)C(=O)O` (stereo partly shown) [Example 26, N-(2-Mercapto-4-phenylbutanoyl)-Val-Tyr], the half-inhibitory concentration (IC50) came out at 8 ± 2 nM in assay [1] (Table III) and 10 ± 1 nM in assay [2] (Table III). In assay [1] (Table IV), `CC(c1ccccc1)C(CS)C(=O)N[C@@H](Cc1ccc(O)cc1)C(=O)O` (stereo partly shown) [Example 61, N-(2-Mercaptomethyl-1-oxo-3-phenylbutyl)tyrosine] returned a half-inhibitory concentration (IC50) of 1.8 nM. As to `CCCC[C@H](NC(=O)C(S)Cc1ccccc1)C(=O)N[C@@H](Cc1ccc(O)cc1)C(=O)O` (stereo partly shown) [Example 22, N-(2-Mercapto-3-phenylpropanoyl)-Nle-Tyr], the half-maximal inhibitory concentration (IC50) in assay [1] (Table III) was found to be 30 ± 5 nM; in assay [2] (Table III), 18 ± 2 nM. On to `CC(c1ccccc1)C(CS)C(=O)N[C@@H](COCc1ccccc1)C(=O)O` (stereo partly shown) [Example 65, N-(2-Mercaptomethyl-1-oxo-3-phenylbutyl)-O-benzylserine], for which the results for the half-inhibitory concentration (IC50) in assay [1] (Table IV) and in assay [2] (Table IV) were 71 nM and 4 nM, respectively. For the molecule `CC(c1ccc(O)cc1)C(CS)C(=O)N[C@@H](Cc1ccc(O)cc1)C(=O)O` (stereo partly shown) [Example 75, N-[2-Mercaptomethyl-3-(4-hydroxyphenyl)-1-oxobutyl]tyrosine], the values for the half-maximal inhibitory concentration (IC50) in assay [1] (Table IV) and in assay [2] (Table IV) were 3.5 nM and 1.8 nM, respectively.

`CC[C@H](C)[C@H](NC(=O)C(S)C(C)C)C(=O)N[C@@H](Cc1ccc(O)cc1)C(=O)O` (stereo partly shown) [Example 27, N-(2-Mercapto-3-methylbutanoyl)-Ile-Tyr]: the half-inhibitory concentration (IC50) was determined as 0.3 ± 0.1 nM in assay [1] (Table III) and 1.4 ± 0.2 nM in assay [2] (Table III).

Turning to `CC(c1ccc(F)c(F)c1)C(CS)C(=O)N[C@@H](C)C(=O)O` (stereo partly shown) [Example 82, N-[2-Mercaptomethyl-3-(3,4-difluorophenyl)-1-oxobutyl]alanine], the values for the IC50 in assay [1] (Table IV) and in assay [2] (Table IV) were 5 nM and 3 nM, respectively. On to `CC(C)[C@H](NC(=O)C(S)Cc1ccccc1)C(=O)N[C@@H](Cc1ccc(O)cc1)C(=O)O` (stereo partly shown) [Example 19, N-(2-Mercapto-3-phenylpropanoyl)-Val-Tyr], for which the IC50 is 4 ± 1 nM in assay [1] (Table III) and 5 ± 2 nM in assay [2] (Table III). For `CC[C@H](C)[C@H](NC(=O)C(S)c1ccccc1)C(=O)N[C@@H](Cc1ccc(O)cc1)C(=O)O` (stereo partly shown) [Example 28, N-(2-Mercapto-2-phenylacetyl)-Ile-Tyr] the same measures were 3.5 ± 0.5 nM and 4.5 ± 0.5 nM. With `CCC(C)C(S)C(=O)N[C@@H](Cc1ccccc1)C(=O)N[C@@H](Cc1ccc(O)cc1)C(=O)O` (stereo partly shown) [Example 24, N-(2-Mercapto-3-methylpentanoyl)-Phe-Tyr], the IC50 in assay [1] (Table III) was 8 ± 2 nM; in assay [2] (Table III), 3 ± 1 nM. `C[C@H](NC(=O)C(CS)C1CCc2ccccc21)C(=O)O` (stereo partly shown) [Example 71, N-[3-Mercapto-2-(1-indanyl)-1-oxopropyl]alanine]: the IC50 in assay [1] (Table IV) is 7.9 nM; in assay [2] (Table IV), 1.3 nM.

`CC(c1ccc(F)c(F)c1)C(CS)C(=O)N[C@@H](Cc1ccc(O)cc1)C(=O)O` (stereo partly shown) [Example 84, N-[2-Mercaptomethyl-3-(3,4-difluorophenyl)-1-oxobutyl]tyrosine]: the 50% inhibitory concentration (IC50) in assay [1] (Table IV) stood at 3.5 nM; in assay [2] (Table IV), 6.3 nM. For `CC(c1ccccc1)C(CSS)C(=O)N[C@@H](Cc1ccc(O)cc1)C(=O)O` (stereo partly shown) [Example 88(A), N-(2-Mercaptothiomethyl-1-oxo-3-phenylbutyl)tyrosine] the same measures were 3 nM and 1 nM. `CC[C@H](C)[C@H](NC(=O)C(S)Cc1ccccc1)C(=O)N[C@@H](Cc1ccc(O)cc1)C(=O)OC` (stereo partly drawn) [Example 20, N-(2-Mercapto-3-phenylpropanoyl)-Ile-Tyr-OMe]: the values for the IC50 in assay [1] (Table III) and in assay [2] (Table III) were 2.5 ± 0.1 nM and 3.2 ± 0.3 nM, respectively. `CC(c1ccccc1)C(CS)C(=O)N[C@@H](C)C(=O)O` (stereo partly shown) [Example 67, N-(2-Mercaptomethyl-1-oxo-3-phenylbutyl)alanine]: the results for the 50% inhibitory concentration (IC50) in assay [1] (Table IV) and in assay [2] (Table IV) were 2.8 nM and 2 nM, respectively. The corresponding values for `CC(=O)SCC(C(=O)N[C@@H](C)C(=O)O)C(C)c1ccc(F)cc1` (stereo partly shown) [Example 78, N-[2-Acetylthiomethyl-3-(4-fluorophenyl)-1-oxobutyl]alanine] are 8.5 nM and 1.9 nM. In the case of `CC(C)C[C@H](NC(=O)C(S)Cc1ccccc1)C(=O)N[C@@H](Cc1ccc(O)cc1)C(=O)O` (stereo partly shown) [Example 23, N-(2-Mercapto-3-phenylpropanoyl)-Leu-Tyr], the 50% inhibitory concentration (IC50) stood at 30 ± 5 nM in assay [1] (Table III) and 3 ± 2 nM in assay [2] (Table III).
